Reference: patent publication US6921773B2, “Use of α-1AR subtype-selective drugs in patients with acute myocardial infarction” (Duke University, priority 1999, dated 2005)
Entries after “also recorded” stand apart in the source; their conditions may differ. One block for each compound: values may come before it.

Legend:
[1] = elderly patients; compared with alfuzosin (non-selective); cited from earlier work
human mammary artery = assay: Phenylephrine-induced mammary artery contraction (isometric tension, organ chambers), with or without a1AR antagonists; settings: for Shift of phenylephrine dose response by antagonist: prazosin 10^-9 and 10^-8 mol/L, 5-MU/spiperone/BMY7378 10^-8 and 10^-7 mol/L; for Kb: read-out: Potency in inhibiting mammary artery contraction (pKB) (converted)
Description: Mammary arteries were immersed in cold oxygenated Krebs-Ringer bicarbonate solution (118.3 mmol/L NaCl, 4.7 mmol/L KCl, 1.2 mmol/L MgSO4, 1.2 mmol/L KHPO4, […], 25 mmol/L NaHCO3, […], […]), cleaned of loose connective tissue, cut into 4-5 mm long rings, and suspended for isometric tension recording in organ chambers. One stirrup was anchored to the chamber and the other connected to a strain gauge (FT-102) for measurement of isometric force (MacLab, CB Sciences; Milford, Mass.). All concentration effect curves were performed at optimum resting tone (˜3 g in pilot studies). Contractile response to 60 mmol/L KCI was performed; this determined vessel viability and facilitated normalization of phenylephrine response across vessel rings. Phenylephrine dose-response curves were generated (10^−4-10^−9mol/L) in ½ log order concentrations in the absence/presence of competitive a1AR antagonists. […] Antagonist potency was expressed as the dissociation constant (KB) determined from pKB=log[B]log(DR-1), where [B] is antagonist concentration and DR the dose ratio produced by antagonist. Dose response curves were analyzed using DOSE RESPONSE software (MacLab, CB Sciences).

a1AR subtypes = assay: Competition analysis against [125I]HEAT in human vessel membranes; type: binding; settings: mammary, renal, splenic arteries, and vena cava; n=3 experiments per vessel
Experimental: (§1) Vessels were weighed, lumen diameter measured, pulverized under liquid nitrogen, and suspended in cold lysis buffer (5 mmol/L Tris HCl and 5 mmol/L EDTA, pH 7.4) with protease inhibitors.^14 After lysate preparation, membranes were resuspended in cold binding buffer (150 mmol/L NaCl, 50 mmol/L Tris·HCl, 5 mmol/L EDTA, with protease inhibitors, pH 7.4) as previously described;^14 protein concentration was determined using the bicinchoninic acid method (Pierce, Rockford, Ill.). Full saturation binding isotherms were performed in selected human vessels (aorta, mammary artery, saphenous vein) in 250 μl binding buffer (20-60 μg vessel membrane protein) using the α1-adrenergic antagonist [^125I]HEAT(2-[b-(hydroxy-3[^125I]iodophenyl)ethyl-aminomethyl]-tetralone; DuPont-NEN; Boston, Mass.) as previously described.^14 To measure total a1AR density in all vessels, a saturating concentration (300 pmol/L) of the [^125I]HEAT was used.

a1AR = assay: [125I]HEAT saturation binding isotherms in human vessel membranes; settings: n=2-4
Experimental: as §1

[2] = Homo sapiens, phenylephrine dose response curves, mean±SEM

Structure (SMILES): CCOc1ccccc1OCCN[C@H](C)Cc1ccc(OC)c(S(N)(=O)=O)c1 [tamsulosin]
Blood pressure perturbation [1]: less blood pressure perturbation

Structure (SMILES): COc1ccccc1N1CCN(CCN2C(=O)CC3(CCCC3)CC2=O)CC1 [BMY7378]
Shift of phenylephrine dose response by antagonist (human mammary artery): does not produce a significant shift; also recorded: does not produce a shift in dose response

EC50 (human mammary artery; Homo sapiens, 10 mammary arteries, mean±SEM, read-out: pD2 of isometric contraction (converted)): 1000 nM
Structure (SMILES): CNC[C@H](O)c1cccc(O)c1 [Phenylephrine]

Structure (SMILES): O=C(CCCN1CCC2(CC1)C(=O)NCN2c1ccccc1)c1ccc(F)cc1 [spiperone]
Kb (human mammary artery; [2]): 2.51 nM | Shift of phenylephrine dose response by antagonist (human mammary artery): concentration dependent shift in potency without reducing maximum response

Structure (SMILES): COc1cc2nc(N3CCN(C(=O)c4ccco4)CC3)nc(N)c2cc1OC [prazosin]
Kb (human mammary artery; [2]): 0.631 nM | Shift of phenylephrine dose response by antagonist (human mammary artery): concentration dependent shift in potency without reducing maximum response

Number of binding sites in competition analysis (a1AR subtypes): binds to two sites
Structure (SMILES): COc1ccccc1N1CCN(CCCNc2c(C)c(=O)n(C)c(=O)n2C)CC1 [5-MU]
Potency in inhibiting mammary artery contraction (pKB) (human mammary artery; phenylephrine dose response curves, mean±SEM): 8.4±0.63 | Shift of phenylephrine dose response by antagonist (human mammary artery): concentration dependent shift in potency without reducing maximum response

Kd (a1AR; aorta): 0.13 ± 0.0002 nM | Kd (a1AR; mammary artery): 0.13 ± 0.0031 nM | Kd (a1AR; saphenous vein): 0.13 ± 0.00065 nM
Structure (SMILES): O=C1c2ccccc2CCC1CNCCc1ccc(O)c(I)c1 (stereo not shown) [^125I-HEAT, 2-[b-(hydroxy-3[^125I]iodophenyl)ethyl-aminomethyl]-tetralone]
